Data taken from US4871765A, “Amine derivative and its salt and anti-ulcer agent containing the same” (Toyama Chemical Co., Ltd., priority 1987, dated 1989).

Columns and labels:
Acute toxicity = type: in vivo; settings: mouse, in vivo; ICR mice (male, 27-30 g), intravenous, up and down method
Protocol: (§1) A test compound was administered to ICR mice (male, 27-30 g) intravenously,and the LD50 value was calculated by the up and down method.

gastric acid secretion = test: Inhibitory activity on gastric acid secretion (pylorus ligation method); type: in vivo, Wistar rats (male); settings: intraduodenal, histamine 25 mg/kg s.c., 3 hours
Protocol: [I] Inhibitory activity on gastric acid secretion (pylorus ligation method)
This activity was measured in accordance with the method by H. Shay et al. described in Gastroenterology, 5, 43 (1945). Groups of six or seven Wistar rats (male, 190-230 g) were fasted for 24 hours, following which the pylorus of each rat was ligated under ether anesthesia. The test compounds were administered intraduodenally after ligation. Thereafter, the rats were subjected to celiorrhaphy and immediately 25 mg/kg of histamine was administered to them subcutaneously at the dorsal. After 3 hours, the cardia of stomach was ligated, and then the stomach was removed. The gastric juice was collected by centrifugation and the total amount was quantitated. 1 ml of the gastric juice was taken and titrated with a 0.1 N aqueous sodium hydroxide solution to an end point of pH 7.0. In administering the test compound, the compound was dissolved in dimethyl sulfoxide (DMSO) and then diluted with distilled water to obtain a 0.25% aqueous DMSO solution containing the test compound. A 0.25% aqueous DMSO solution containing no test compound was administered to control group.
The inhibition rate of gastric acid secretion was calculated from the following equation: [formula]

ICR mice = test: Acute toxicity; type: in vivo; settings: ICR mice (male, 27-30 g), intravenous, up and down method
Protocol: as §1

## CN(C)Cc1ccc(CSCCNC(=NS(C)(=O)=O)NCC(O)c2ccc(O)cc2)o1 (stereo not shown) [Test compound 5, reference compound]
Acute toxicity
  LD50: 90.7 mg/kg

## CNCc1ccc(CSCCNC(=NS(C)(=O)=O)NCC(O)c2ccc(O)cc2)o1 (stereo not shown) [compound 1]
Gastric acid secretion; Rattus norvegicus, dose 0.625 mg/kg, **p < 0.01, read-out: Inhibition rate
  inhibition at 0.625 mg/kg: 67.6%
Gastric acid secretion; Rattus norvegicus, dose 1.25 mg/kg, **p < 0.01, *p < 0.05, read-out: Inhibition rate
  inhibition at 1.25 mg/kg: 82.2%
Acute toxicity
  LD50: 100 mg/kg

## N-[2-(4-carbamoylphenyl)-2-hydroxyethyl]-N'-methanesulfonyl-N"-[2-[[5-(methylamino)methyl-2furyl]-methylthio]ethyl]guanidine [Test compound 2]
ICR mice
  LD50: 129.8 mg/kg

## N-[2-hydroxy-2-(4-hydroxyphenyl)ethyl]-N'-methanesulfonyl-N"-[2-[[5-(methylamino)methyl-2-furyl]methylthio]ethyl]guanidine [Example 1 (1)]
Gastric acid secretion; dose 1.25 mg/kg, **p < 0.01, *p < 0.05, listed as 2
  Inhibition rate: 51.3%
Gastric acid secretion; dose 1.25 mg/kg, **p < 0.01, *p < 0.05, listed as 3
  Inhibition rate: 54.2%
Gastric acid secretion; dose 1.25 mg/kg, **p < 0.01, *p < 0.05, listed as 4
  Inhibition rate: 30.6%

## N-[2-hydroxy-2-[3-(methanesulfonylamino)phenyl]ethyl]-N'-methanesulfonyl-N"-[2-[[5-(methylamino)-methyl-2-furyl]methylthio]ethyl]guanidine [Test compound 3]
ICR mice
  LD50: 151.0 mg/kg

## S(-)-N-[2-hydroxy-2-(4-hydroxyphenyl)ethyl]-N'-methanesulfonyl-N"-[2-[[5-(methylamino)methyl-2-furyl]methylthio]ethyl]guanidine [Example 5]
Gastric acid secretion; dose 5.0 mg/kg
  Inhibition rate: 32.7%
